Like-named read-outs stand apart in the source and are kept apart here. Values belong to the compound of their own block, whether it stands above or below them. *1 amine or outer side, *2 acyl side, *3 side chain or, on linkers, in order; H or OH if unused. Where a SMILES comes first, the peptide text is derived from it. Bridges are numbered along the chain shown (N, C = ends). [ ]: non-standard residue; d: D form. βAsp = O=C(O)[C@H](CC(=O)[*:2])N[*:1]
Legend:
[1] = biological target: T1, αvβ3 (Homo sapiens, UniProt P05106+P06756); assay: IC50 (μM)
T1 construct: purchased Immunological Sciences
Excerpt: Table printed on a drawing sheet, Figure 7
Head of the field: IC50 (μM)
The patent's description of the figure: FIG. 7 Competitive binding of NGR-TNF to αvβ3 with NGR-pep and its deamidated products to αvβ3.
First copying reader's note: Legend table of panel A (inhibition of bio-NGR-TNF binding to αvβ3): the first three body rows belong to the upper plot and the last five to the lower plot, which prints no head of its own; the plot marker symbols are left out.
Where the first naming reader finds the target: description_of_the_figure: FIG. 7 Competitive binding of NGR-TNF to αvβ3 with NGR-pep and its deamidated products to αvβ3.

[2] = stability / deamidation kinetics of peptides by RP-HPLC; format: physicochemical; settings: for stability under integrin binding assay conditions: assay conditions of competitive binding
Method: RP-HPLC analysis of NGR-pep and its synthetic deamidation products (DGR-pep and isoDGR-pep) before and after incubation for 4 h at 37° C. in 0.1 M ammonium bicarbonate buffer, pH 8.5 (A and B) and in DMEM, pH 7.3 (A, inset). RP-HPLC was performed on a C-18 column (PepMap C18, PerSeptive Biosystem) as follows: buffer A, 0.1% trifluoroacetic acid (TFA) in water; buffer B, 95% acetonitrile, 0.1% TFA; 0% B for 10 min, linear gradient 20-40% B in 30 min, 100% B for 10 min; 0% B for 15 min (flow rate, 0.5 ml/min). Peak 1, 2 and 3 were identified by spiking the NGR-pep, after 2 h of incubation, with equal amount of the indicated peptide (C). NGR-pep (peak 1) rapidly converts to compounds corresponding to DGR-pep (peak 2) and isoDGR-pep (peak 3) (half-life, 2-4 h).
The stability of NGR and the kinetics of LisoDGR or DDGR formation at pH 7.3 (DMEM) and pH 8.5 (ammonium bicarbonate), were then investigated. To this aim the CNGRCGVRY (SEQ ID NO: 42) peptide (called NGR-pep) was synthesized and analyzed by reverse-phase HPLC, before and after incubation at 37° C. Residues GVRY (SEQ ID NO: 72) were added to the C-terminus of CNGRC (SEQ ID NO: 6) to enable column adsorption. In addition five peptides called, DGR-pep, D-DGR-pep, isoDGR-pep, D-isoDGR and SGR-pep, corresponding to the same sequence of NGR-pep except for the presence of D, D-D, L-isoD, D-isoD and S, respectively in place of N were prepared. The half-life of NGR-pep at pH 7.3 and 8.5, estimated from the height of the main chromatographic peak (peak 1), was about 4 and 2 h, respectively (FIG. 5A, inset). Peptides corresponding to deamidation products were stable under these conditions (FIG. 5B).
To identify peaks and to verify that the measured half-life correspond to Asn deamidation, and not to other structural changes, we analyzed heat-treated NGR-pep peptide spiked with fresh NGR-pep, or DGR-pep or isoDGR-pep peptides.

[3] = tested on: L-M mouse fibroblasts; assay: standard cytolytic assay with L-M mouse fibroblasts; format: cell-based; settings: in vitro, L-M murine fibroblasts
Excerpt: Protein purity and identity were checked by SDS-PAGE, electrospray mass spectrometry and gel-filtration chromatography.
The cDNA coding for DGR-TNF (mouse TNF fused with the C-terminus of CDGRCG (SEQ ID NO: 24)) was obtained by PCR on NGR-TNF plasmid, using the following primers: 5′ […] 3′ (SEQ ID NO: 43) (5′ primer); 5′ […] ′3 (SEQ ID NO: 44) (3′ primer). Both primers were designed to allow the directional cloning into a pET101/D-TOPO plasmid expression kit (Invitrogen). The underlined sequence in 5′ primer contains the sequence necessary to enable the directional cloning and the initial translation codon whereas the 3′ primer contains the stop codon (underlined). The PCR reaction and the cloning procedure were performed as recommended by the manufacturer's instruction. […] The column was washed extensively 100 mM Tris-HCl buffer containing pH 8.0, loaded with DGR-TNF crude extract, diluted in 20 mM Tris-HCl buffer conatining 2 mM EDTA pH 8.0, and desorbed by elution with 7 M urea, 100 mM Tris-HCl, pH 8.0. DGR-TNF was then refolded as described (1). Briefly, the denatured products were dialyzed against 2.33 M urea, 100 mM Tris-HCl, pH 8.0 at 4° C. (140 min), followed by 1.55 M urea, 100 mM Tris-HCl, pH 8.0 (140 min), and 1 M urea, 100 mM Tris-HCl, pH 8 (140 min). Finally the products were dialyzed against 100 mM Tris-HCl, pH 8.0 (48 h). The products were centrifuged at 13000×g (10 min, 4° C.) and concentrated by ultra-filtration through a 10 KDa cut-off filter. All solutions used in the purification and refolding steps were prepared with sterile and endotoxin-free water (S.A.L.F. Laboratorio Farmacologico SpA, Bergamo, Italy). Protein concentration was measured using the BCA Protein Assay Reagent (Pierce, Rockford, Ill.). Protein purity and identity were checked by SDS-PAGE, electrospray mass spectrometry (ESI-MS) and analytical gel-filtration chromatography.

[4] = tested on: EA.hy926 cells; assay: EA.hy926 cell adhesion assay on coated microtiter plates; format: cell-based, human; settings: for EA.hy926 cell adhesion to coated product after heat-treatment: 0.1 M ammonium bicarbonate buffer, pH 8.5, 16 h at 37° C.; for EA.hy926 cell adhesion to coated product: before heat treatment
Method: Adhesion of EA.hy926 cells to microtiter plates coated with various peptides and proteins before and after accelerated aging. Accelerated aging was performed by peptide incubation in 0.1 M ammonium bicarbonate buffer, pH 8.5, for 16 h at 37° C. (“heat-treatment”). Adhesion to: recombinant FN-I4-5 or control protein (FN-I4-5 (SGS)) (A), synthetic FN-I5 (B), recombinant CNGRC-TNF, CNGRC-TNF1-11 and control CARAC-TNF1-11 peptide (C), CDGRC-TNF (D). Heat-treated (37° C.) and untreated (−20° C.) products were adsorbed onto the plastic surface of microtiter wells (overnight at 4° C.). Microphotograph of wells coated with 30 μg/ml of heat-treated FN-I5 or BSA (B, right) or with 10 μg/ml of recombinant CNGRC-TNF or CDGRC-TNF (C, right), ×200. Cell adhesion assay was carried out as described in Materials and Methods. The TNF fusion constructs, including the TNF1-11 fusion constructs, were made as described Materials and Methods, and include a “G” linker.
Untreated and “heat treated” fibronectin fragments, peptides and peptide-TNF conjugates were diluted at the desired concentration with 150 mM sodium chloride, 50 mM sodium phosphate, pH 7.3, and added to 96-well polyvinyl chloride microtiter plates (Falcon, Becton Dickinson). After overnight incubation at 4° C., the plates were washed, seeded with EA.hy926 cell in DMEM containing 0.1% BSA (40000 cells/well) and left to incubate for 2-3 h at 37° C., 5% CO2. Adherent cells were fixed and stained with crystal violet as described (Curnis et al., 2005).

[5] = biological target: T2, αvβ3 integrin (Homo sapiens, UniProt P05106+P06756); assay: competitive binding of biotinylated FN-I5/streptavidin-peroxidase complexes to αvβ3-coated plates; settings: in words, FIG. 6C
T2 construct: purchased Immunological Sciences
Method: (C) Competitive binding of biotinylated FN-I5/streptavidin-peroxidase complexes to αvβ3-coated plates with various amounts of FN-I4-5 or FN-I4-5SGS (upper panel or peptides corresponding to the NGR loop (residues 258-271) of FN-I5 before and after heat treatment (lower panel).
Binding of biotinylated peptides (CNGRC (SEQ ID NO: 6)-TNF1-11, CARAC (SEQ ID NO: 36)-TNF1-11 and FN-I5) to purified integrins was studied using streptavidin-peroxidase conjugate complexes. Complexes were prepared by mixing various quantities (0.5-1 μg) of heat-treated biotinylated peptides in DPBS containing 3% BSA with 0.03 units of streptavidinperoxidase (binding capacity: 1 μg of biotin/unit of streptavidin-peroxidase) (final volume 15 μl). Complexes were diluted in 3% BSA-DPBS (1:500), added to microtiterplates coated with integrins as described above, and incubated for 2 h at room temperature. After washing with DPBS, bound peroxidase was detected by chromogenic reaction as described above. Each assay was carried out in triplicate.
The binding of heat-treated FN-I5, CNGRC (SEQ ID NO: 6)-TNF and short peptides to purified αvβ3, αvβ5, α5β1 and α1β1 integrins was then investigated by direct and competitive ELISA with integrins adsorbed on microtiterplates.

T1 sequence (P05106 27-788 limits assumed): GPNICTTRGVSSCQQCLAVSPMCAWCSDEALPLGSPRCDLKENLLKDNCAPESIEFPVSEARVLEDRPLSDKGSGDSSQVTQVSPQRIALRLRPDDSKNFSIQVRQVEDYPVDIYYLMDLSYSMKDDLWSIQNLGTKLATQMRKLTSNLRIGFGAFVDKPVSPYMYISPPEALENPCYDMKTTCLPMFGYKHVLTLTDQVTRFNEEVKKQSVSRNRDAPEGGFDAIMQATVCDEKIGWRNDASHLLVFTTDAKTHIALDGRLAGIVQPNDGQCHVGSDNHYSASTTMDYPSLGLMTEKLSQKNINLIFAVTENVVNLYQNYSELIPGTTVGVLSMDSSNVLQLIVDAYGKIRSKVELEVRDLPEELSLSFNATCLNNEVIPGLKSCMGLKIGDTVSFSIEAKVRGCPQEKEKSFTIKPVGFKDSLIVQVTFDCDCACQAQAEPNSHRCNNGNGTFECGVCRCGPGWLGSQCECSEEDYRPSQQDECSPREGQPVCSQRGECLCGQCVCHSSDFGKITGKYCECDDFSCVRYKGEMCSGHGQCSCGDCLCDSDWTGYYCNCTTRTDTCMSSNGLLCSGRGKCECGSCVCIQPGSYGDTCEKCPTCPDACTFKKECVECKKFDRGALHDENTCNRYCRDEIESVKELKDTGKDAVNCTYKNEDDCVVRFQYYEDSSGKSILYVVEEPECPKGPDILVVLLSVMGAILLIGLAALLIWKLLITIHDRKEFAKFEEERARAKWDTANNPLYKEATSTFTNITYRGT
T1 sequence (P06756 31-889 limits assumed): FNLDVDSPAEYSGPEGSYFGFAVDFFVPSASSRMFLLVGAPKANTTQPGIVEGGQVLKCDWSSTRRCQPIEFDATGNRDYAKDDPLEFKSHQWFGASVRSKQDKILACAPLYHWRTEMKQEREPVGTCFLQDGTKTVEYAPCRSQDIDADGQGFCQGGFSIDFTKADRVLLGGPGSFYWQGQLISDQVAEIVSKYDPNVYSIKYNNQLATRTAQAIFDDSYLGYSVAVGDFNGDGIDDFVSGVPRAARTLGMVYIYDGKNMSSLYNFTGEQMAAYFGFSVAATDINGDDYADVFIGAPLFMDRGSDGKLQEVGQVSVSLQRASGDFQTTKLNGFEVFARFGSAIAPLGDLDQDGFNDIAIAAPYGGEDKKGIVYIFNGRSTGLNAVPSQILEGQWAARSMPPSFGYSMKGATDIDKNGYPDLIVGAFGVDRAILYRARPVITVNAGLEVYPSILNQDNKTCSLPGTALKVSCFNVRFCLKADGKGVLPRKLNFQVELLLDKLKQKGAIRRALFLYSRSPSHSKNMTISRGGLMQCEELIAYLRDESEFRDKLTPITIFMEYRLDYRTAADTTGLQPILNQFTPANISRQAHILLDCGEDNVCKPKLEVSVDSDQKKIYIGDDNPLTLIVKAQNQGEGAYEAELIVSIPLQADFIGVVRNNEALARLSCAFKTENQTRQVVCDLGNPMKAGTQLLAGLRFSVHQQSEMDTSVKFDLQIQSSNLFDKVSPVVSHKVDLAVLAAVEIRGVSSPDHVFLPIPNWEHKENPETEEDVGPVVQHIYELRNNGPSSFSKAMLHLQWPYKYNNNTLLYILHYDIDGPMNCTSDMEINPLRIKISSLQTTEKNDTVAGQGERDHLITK
T1 sequence (P06756 891-1048 limits assumed): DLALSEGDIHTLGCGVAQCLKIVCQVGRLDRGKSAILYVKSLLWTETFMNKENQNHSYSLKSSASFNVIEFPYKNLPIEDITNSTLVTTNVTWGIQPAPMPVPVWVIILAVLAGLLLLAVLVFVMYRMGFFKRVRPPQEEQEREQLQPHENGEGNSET
T2 sequence (P06756 31-889 limits assumed): as the sequence (P06756 31-889 limits assumed) above
T2 sequence (P06756 891-1048 partner limits assumed): as the sequence (P06756 891-1048 limits assumed) above
T2 sequence (P05106 27-788): as the sequence (P05106 27-788 limits assumed) above

IC50 [1]: 60 µM
Compound: CC(C)[C@H](NC(=O)CNC(=O)[C@@H]1CSSC[C@H](N)C(=O)N[C@@H](CC(=O)O)C(=O)NCC(=O)N[C@@H](CCCNC(=N)N)C(=O)N1)C(=O)N[C@@H](CCCNC(=N)N)C(=O)N[C@@H](Cc1ccc(O)cc1)C(=O)O [DGR-pep] (H-CDGRCGVRY-OH; disulfide 1-5; N-terminus and C-terminus assumed)

stability under integrin binding assay conditions [2]: stable
Compound: CC(C)[C@H](NC(=O)CNC(=O)[C@@H]1CSSC[C@H](N)C(=O)N[C@H](C(=O)O)CC(=O)NCC(=O)N[C@@H](CCCNC(=N)N)C(=O)N1)C(=O)N[C@@H](CCCNC(=N)N)C(=O)N[C@@H](Cc1ccc(O)cc1)C(=O)O [isoDGR-pep] (H-C[βAsp]GRCGVRY-OH; disulfide 1-5 (inferred); N-terminus and C-terminus assumed)

stability when stored in water ([2]; 37° C., water): stable for more than one week
half-life ([2]; ammonium bicarbonate buffer and DMEM, 37° C., pH 8.5 ammonium bicarbonate and DMEM pH 7.3 (FIG. 5 legend), read-out: half-life of conversion to DGR-pep and isoDGR-pep): 2 to 4 h
half-life ([2]; ammonium bicarbonate buffer, pH 8.5 (0.1 M ammonium bicarbonate), 37° C., read-out: half-life (height of main chromatographic peak) (converted)): ~2 h
half-life ([2]; pH 7.3 (DMEM), 37° C., read-out: half-life (height of main chromatographic peak) (converted)): ~4 h
IC50 [1]: 25 µM
Compound: CC(C)[C@H](NC(=O)CNC(=O)[C@@H]1CSSC[C@H](N)C(=O)N[C@@H](CC(N)=O)C(=O)NCC(=O)N[C@@H](CCCNC(=N)N)C(=O)N1)C(=O)N[C@@H](CCCNC(=N)N)C(=O)N[C@@H](Cc1ccc(O)cc1)C(=O)O [NGR-pep, CNGRCGVRY] (H-CNGRCGVRY-OH; disulfide 1-5; N-terminus and C-terminus assumed)

Compound: Cys-Asp-Gly-Arg-Cys-Gly-(SEQ ID NO: 24)TNF [CDGRC-TNF]
Cytolytic Activity [3]: 2.59 (±0.69)×10^8 U/mg
Cytolytic Activity ([3]; listed as DGR-TNF): 2.5×10^8 U/mg
EA.hy926 cell adhesion to coated product after heat-treatment [4]: completely inactive
EA.hy926 cell adhesion to coated product [4]: completely inactive

stability under integrin binding assay conditions [2]: stable
Compound: CC(C)[C@H](NC(=O)CNC(=O)[C@@H]1CSSC[C@H](N)C(=O)N[C@H](CC(=O)O)C(=O)NCC(=O)N[C@@H](CCCNC(=N)N)C(=O)N1)C(=O)N[C@@H](CCCNC(=N)N)C(=O)N[C@@H](Cc1ccc(O)cc1)C(=O)O [DDGR-pep] (H-C[dD]GRCGVRY-OH; disulfide 1-5 (inferred); N-terminus and C-terminus assumed)

competition of the binding of FN-I5 to αvβ3 [5]: could compete
Compound: FN-I4-5: recombinant human fibronectin 4-5th type I repeats, residue 184-273, His-tag at the N-terminus
EA.hy926 cell adhesion to coated product after heat-treatment [4]: increase of cell adhesion
EA.hy926 cell adhesion to coated product [4]: promoted cell adhesion

IC50 [1]: > 1000 µM
Compound: CC(C)[C@H](NC(=O)CNC(=O)[C@@H]1CSSC[C@H](N)C(=O)N[C@@H](CO)C(=O)NCC(=O)N[C@@H](CCCNC(=N)N)C(=O)N1)C(=O)N[C@@H](CCCNC(=N)N)C(=O)N[C@@H](Cc1ccc(O)cc1)C(=O)O [SGR-pep] (H-CSGRCGVRY-OH; disulfide 1-5; N-terminus and C-terminus assumed)

competition of the binding of FN-I5 to αvβ3 [5]: not
Compound: Loop-RGGNG: control loop peptide of FN-I5 with scrambled sequence at the GNGRG site (LQCISTRGGNGEWKCE) [reference compound]

competition of the binding of FN-I5 to αvβ3 [5]: Binding competition was observed
Compound: Loop-GNGRG: peptide corresponding to the NGR loop of FN-I5 (LQCISTGNGRGEWKCE)
